Reference: ChEMBL document CHEMBL1143283, “Preliminary biological evaluations of new thalidomide analogues for multiple sclerosis application” (Bioorg Med Chem Lett, 2009)
The source made the active and inactive calls. The rule behind the calls is not given here.

Experiments:
[1] = Antiproliferative activity against human EAhy926 cells; type: functional, cell-based; settings: EA.hy 926
Mus musculus [2] = test: Antiangiogenesis activity against MOG peptide, pertussis toxin, Mycobacterium tuberculosis-induced experimental allergic encephalomyelitis C57BL/6J mouse model assessed as inhibition of multiple sclerosis at dose equivalent to 100 mg/kg of thalidomide up to 15 days; type: functional, organism-based; set-up: dose 100 mg/kg
Mus musculus [3] = test: Antiangiogenesis activity against MOG peptide, pertussis toxin, Mycobacterium tuberculosis-induced experimental allergic encephalomyelitis C57BL/6J mouse model assessed as inhibition of multiple sclerosis at 100 mg/kg up to 15 days; type: functional, organism-based; set-up: dose 100 mg/kg
EA.hy 926 [4] = test: Antiproliferative activity against human EAhy926 cells at 10 uM; type: functional, cell-based
EA.hy 926 [5] = test: Antiproliferative activity against human EAhy926 cells at 12 uM; type: functional, cell-based

SMILES | IC50 [1] [µM] | Activity (Mus musculus [2]) | other results
NCCNc1cccc2c1C(=O)N(C1CCC(=O)NC1=O)C2=O (stereo not drawn) | 150 | – | –
Nc1ccc2c(c1)C(=O)N(C1CCC(=O)NC1=O)C2=O (stereo not drawn) | – | inactive | –
O=C1CCC(N2C(=O)c3ccc(NCCCNC(=O)C(O)C(O)C(O[C@@H]4O[C@H](CO)[C@H](O)[C@H](O)[C@H]4O)C(O)CO)cc3C2=O)C(=O)N1 (stereo partly drawn) | – | Active | –
O=C1CCC(N2C(=O)c3ccc(C(=O)O)cc3C2=O)C(=O)N1 (stereo not drawn) | – | Active | –
CC(C)(C)OC(=O)NCCNc1ccc2c(c1)C(=O)N(C1CCC(=O)NC1=O)C2=O (stereo not drawn) | 41 | – | –
O=C1CCC(N2C(=O)c3ccccc3C2=O)C(=O)N1 (stereo not drawn) [THALIDOMIDE] | 200 | – | Activity (Mus musculus [3]): inactive
O=C1CCC(N2C(=O)c3ccc(NCCCCC(NC(=O)[C@H](O)[C@H](O)[C@H](O[C@@H]4O[C@H](CO)[C@H](O)[C@H](O)[C@H]4O)[C@H](O)CO)C(=O)NCCC(F)(F)C(F)(F)C(F)(F)C(F)(F)C(F)(F)C(F)(F)C(F)(F)C(F)(F)F)cc3C2=O)C(=O)N1 (stereo partly drawn) | – | inactive | –
NCCNc1ccc2c(c1)C(=O)N(C1CCC(=O)NC1=O)C2=O (stereo not drawn) | – | inactive | Activity (EA.hy 926 [4]): inactive; Activity (EA.hy 926 [5]): inactive
O=C1CCC(N2C(=O)c3ccc([N+](=O)[O-])cc3C2=O)C(=O)N1 (stereo not drawn) | – | – | Activity (EA.hy 926 [4]): inactive; Activity (EA.hy 926 [5]): inactive
